Reference: ChEMBL document CHEMBL1156552, “Novel ligands rationally designed for characterizing I2-imidazoline binding sites nature and functions” (J Med Chem, 2008)
Active and inactive are the calls of the source. No cut-off for these calls is given here.

Key:
[1] = Displacement of [3H]2-BFI from Imidazoline receptor 2 in Sprague-Dawley rat whole brain membrane
[2] = Binding affinity to Imidazoline receptor 2
[3] = Displacement of [3H]RX821002 from Adrenergic alpha2 receptor in Sprague-Dawley rat whole brain membrane
[4] = system: Mus musculus; test: Effect on morphine-induced analgesia in efaroxan pretreated CD1 mouse at 10 mg/kg, sc by tail flick test; format: functional, organism-based; parameters: dose 10 mg/kg
[5] = system: Mus musculus; test: Effect on morphine-induced analgesia in yohimbine pretreated CD1 mouse at 10 mg/kg, sc by tail flick test; format: functional, organism-based; parameters: dose 10 mg/kg
[6] = system: Mus musculus; test: Reversal of decrease in morphine-induced analgesia in idazoxan pretreated CD1 mouse at 10 mg/kg, sc by tail flick assay; format: functional, organism-based; parameters: dose 10 mg/kg
[7] = species on record: Rattus norvegicus; test: Selectivity ratio, IC50 for Imidazoline receptor 1 in Sprague-Dawley rat kidney membrane to Ki for Imidazoline receptor 2 in Sprague-Dawley rat whole brain membrane; format: cell membranes
[8] = species on record: Rattus norvegicus; test: Selectivity ratio, IC50 for Imidazoline receptor 1 in Sprague-Dawley rat kidney membrane to Ki for alpha2 adrenoceptor in Sprague-Dawley rat whole brain membrane; format: cell membranes
[9] = system: Mus musculus; test: Increase in morphine-induced analgesia in CD1 mouse at 10 mg/kg, sc after 30 mins by tail flick test relative to control; format: functional; conditions: route subcutaneous
[10] = biological target: T1, Nischarin (Rattus norvegicus, UniProt Q4G017); test: Displacement of [3H]clonidine from Imidazoline receptor 1 in Sprague-Dawley rat kidney membrane; format: cell membranes
T1 sequence (Q4G017 whole entry): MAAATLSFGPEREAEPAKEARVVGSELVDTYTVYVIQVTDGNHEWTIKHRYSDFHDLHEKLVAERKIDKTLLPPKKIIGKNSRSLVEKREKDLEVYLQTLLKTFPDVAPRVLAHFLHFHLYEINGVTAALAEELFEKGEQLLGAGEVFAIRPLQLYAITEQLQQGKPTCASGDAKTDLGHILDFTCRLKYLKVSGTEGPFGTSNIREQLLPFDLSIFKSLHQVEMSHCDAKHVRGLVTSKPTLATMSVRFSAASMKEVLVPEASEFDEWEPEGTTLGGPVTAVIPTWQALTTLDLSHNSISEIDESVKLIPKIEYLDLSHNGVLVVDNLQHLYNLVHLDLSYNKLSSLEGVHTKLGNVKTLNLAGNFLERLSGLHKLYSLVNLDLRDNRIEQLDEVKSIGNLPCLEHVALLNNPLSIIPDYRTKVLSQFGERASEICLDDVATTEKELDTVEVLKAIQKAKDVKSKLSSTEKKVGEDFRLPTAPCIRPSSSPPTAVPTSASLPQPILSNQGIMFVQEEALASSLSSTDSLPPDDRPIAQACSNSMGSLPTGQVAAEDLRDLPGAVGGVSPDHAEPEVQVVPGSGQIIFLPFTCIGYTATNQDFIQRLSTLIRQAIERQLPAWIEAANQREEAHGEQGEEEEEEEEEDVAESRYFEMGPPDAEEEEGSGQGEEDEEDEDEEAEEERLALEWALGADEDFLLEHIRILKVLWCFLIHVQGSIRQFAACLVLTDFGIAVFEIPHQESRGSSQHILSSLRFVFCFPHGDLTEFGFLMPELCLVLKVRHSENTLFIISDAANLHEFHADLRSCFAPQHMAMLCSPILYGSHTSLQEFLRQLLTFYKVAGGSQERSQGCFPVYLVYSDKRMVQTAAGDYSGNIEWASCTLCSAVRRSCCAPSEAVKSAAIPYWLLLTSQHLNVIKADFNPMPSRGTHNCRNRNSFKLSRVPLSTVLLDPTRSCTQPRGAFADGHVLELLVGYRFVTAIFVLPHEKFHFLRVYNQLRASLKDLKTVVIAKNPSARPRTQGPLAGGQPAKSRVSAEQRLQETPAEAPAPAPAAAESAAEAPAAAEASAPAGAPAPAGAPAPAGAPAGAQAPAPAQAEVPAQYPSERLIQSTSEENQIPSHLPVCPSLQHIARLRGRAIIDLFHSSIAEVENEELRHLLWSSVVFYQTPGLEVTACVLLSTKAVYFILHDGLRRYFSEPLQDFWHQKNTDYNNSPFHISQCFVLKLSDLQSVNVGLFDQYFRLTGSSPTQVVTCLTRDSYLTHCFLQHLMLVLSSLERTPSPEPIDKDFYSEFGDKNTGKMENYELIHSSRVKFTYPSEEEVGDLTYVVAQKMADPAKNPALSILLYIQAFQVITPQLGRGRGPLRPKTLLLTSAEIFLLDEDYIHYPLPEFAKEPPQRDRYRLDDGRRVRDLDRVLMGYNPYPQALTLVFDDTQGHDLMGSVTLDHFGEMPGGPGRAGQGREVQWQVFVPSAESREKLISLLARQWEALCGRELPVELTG

[11] = system: Mus musculus; test: Decrease in morphine-induced analgesia in CD1 mouse at 20 mg/kg, sc after 30 mins by tail flick test relative to control; format: functional; parameters: scale not given: the % may be the effect or the level left; conditions: route subcutaneous
[12] = system: Mus musculus; test: Antinociceptive activity in CD1 mouse at 20 mg/kg, sc after 30 mins by tail flick test; format: functional, organism-based; parameters: dose 20 mg/kg
[13] = system: Mus musculus; test: Antinociceptive activity in CD1 mouse at 10 mg/kg, sc after 30 mins by tail flick test; format: functional, organism-based; parameters: dose 10 mg/kg
[14] = system: Mus musculus; test: Decrease in morphine-induced analgesia in CD1 mouse at 10 mg/kg, sc after 30 mins by tail flick test relative to control; format: functional; parameters: scale not given: the % may be the effect or the level left; conditions: route subcutaneous
[15] = biological target: T1, Nischarin; test: Displacement of [3H]clonidine from Imidazoline receptor 1 rat PC-12 cells; format: cell-based

Row | Structure (SMILES) | Ki [1] [nM] | pKi [2] | Ki [3] [nM] | Activity [4] | Activity [5] | Activity [6] | Ratio [7] | Ratio [8] | Activity [9] [%] | IC50 [10] [nM] | Activity [11] [%] | Activity [12] | Activity [13] | Activity [14] [%] | Ki [15] [nM]
1 | c1ccc(CCC2=NCCN2)cc1 [PHENYZOLINE] | 2.5 | 8.6 | 1980 | inactive | inactive | Active | 1480 | 794 | 60 | – | – | – | – | – | –
2 | O=[N+]([O-])c1cccc(-c2ccccc2CCC2=NCCN2)c1 | 252 | – | 1120 | – | – | – | 16 | 4.4 | – | 4000 | -29 | inactive | – | – | –
3 | Oc1ccccc1CCC1=NCCN1 | 73.5 | – | 926 | – | – | – | 99.3 | 12.6 | – | 7300 | – | – | inactive | -26 | –
4 | c1c[nH]c(CCC2=NCCN2)c1 | 254 | – | 3540 | – | – | – | 94 | 13.9 | 14 | 23900 | – | – | inactive | – | –
5 | C1CCC(CCC2=NCCN2)CC1 | 4.8 | – | 2960 | – | – | – | 744 | 617 | 30 | 3570 | – | – | inactive | – | –
6 | c1cncc(CCC2=NCCN2)c1 | 414 | – | 64800 | – | – | – | 512 | 157 | 23 | 212000 | – | – | inactive | – | –
7 | c1ccc2c(CCC3=NCCN3)cccc2c1 | 1.16 | – | 381 | – | – | – | 22300 | 328 | 16 | 25800 | – | – | inactive | – | –
8 | Cc1ccccc1CCC1=NCCN1 | 1.68 | – | 558 | – | – | – | 4380 | 332 | – | 7360 | – | – | inactive | -44 | –
9 | Clc1ccccc1CCC1=NCCN1 | 1.5 | – | 295 | – | – | – | 2840 | 197 | – | 4260 | – | – | inactive | -34 | –
10 | c1ccc(-c2ccsc2)c(CCC2=NCCN2)c1 | 8.89 | – | 293 | – | – | – | 775 | 32.9 | – | 6890 | – | – | inactive | -59 | –
11 | c1csc(CCC2=NCCN2)c1 | 7.72 | – | 820 | – | – | – | 373 | 106 | 34 | 2880 | – | – | inactive | – | –
12 | c1ccc(-c2ccccc2CCC2=NCCN2)cc1 | 158 | 6.8 | 7130 | inactive | inactive | Active | 40 | 45 | – | – | – | – | – | -41 | 6340
